Test results taken from patent US10189796B2, “[4-(1,3,3-trimethyl-2-oxo-3,4-dihydro-1H-quinoxalin-7-yl)phenoxy]ethyloxy compound or salt thereof” (SANTEN PHARMACEUTICAL CO., LTD., priority 2015, dated 2019).

Legend:
[1] = system: IL-6 production in human corneal epithelium cell line (HCE-T); experiment: IL-6 production inhibitory action evaluation test (LPS stimulation, HTRF); assay type: cell-based; details: 4 hours; for Emax: 100 μM test compound solution 10 μL/well, DEX treated group = 100, read-out: IL-6 production inhibitory ratio (% DEX); for IC50: IL-6 production inhibition
Protocol: To evaluate the action of the present compounds as a GR agonist, IL-6 production inhibitory action in human corneal epithelial cell line after LPS stimulation was examined The IL-6 production was measured by using the HTRF method (Cat No. 62IL6PEB manufactured by Cisbio Bioassays, Inc.) according to the attached protocol. The specific method is described below.
LPS solution: After dissolving LPS in PBS(−), the resulting solution was diluted with a culture solution, whereby an LPS solution with a 1 μg/mL concentration was prepared.
After dissolving the test compound in dimethylsulfoxide, the solution was diluted with a 10% FBS-DMEM/Ham's F12 medium, whereby a 100 μM of the test compound solution was prepared. […] In addition, DEX was similarly dissolved, whereby a 100 μM concentration of the DEX solution was prepared, and an IL-6 production inhibitory ratio of DEX was measured, and used for calculation of Efficacy (% DEX).
Used cells: human corneal epithelium cell line (HCE-T) (RIKEN, Institute of Physical and Chemical Research)
The cells continued to subculture according to this method were used for the test. (Test Method and Measurement Method) • 1) The subcultured HCE-T was recovered and the cells were seeded at 2.0×10^4 cells/0.1 mL/well in a 96-well flat bottom culture plate. • 2) After culturing overnight, medium the medium was removed and each 80 μL/well of 10%
FBS-DMEM/Ham's F12 medium was added. • 3) Test compound solution was added with each 10 μL/well. • 4) LPS solution was added with each 10 μL/well. • 5) The sample to which 1% dimethylsulfoxide-containing 10% FBS-DMEM/Ham's F12 medium was added with each 10 μL/well in place of each test compound solution, and 10% FBS-DMEM/Ham's F12 medium was added in place of the LPS solution was made a negative control. • 6) The sample in which 1% dimethylsulfoxide-containing 10% FBS-DMEM/Ham's F12 medium was added with each 10 μL/well in place of each test compound solution was made a positive control. • 7) After completion of 4 hours cultivation, the supernatant was recovered and the amount of IL-6 released in the supernatant was measured by using an HTRF human IL-6 Kit. • 8) The IL-6 production inhibitory ratio was calculated according to the following calculation formula. (Calculation of IL-6 Production Inhibitory Ratio)
(§1) The IL-6 production inhibitory ratio (%) was calculated by the following formula. IL-6 production inhibitory ratio (%)=100×{1−(IL-6 produced amount of each test compound solution−average value of IL-6 produced amount of negative control group)/(average value of IL-6 produced amount of positive control group−average value of IL-6 produced amount of negative control group)}(%)
Further, the IL-6 production inhibitory ratio (Efficacy (% DEX)) when the DEX treated group was made 100 was calculated. Efficacy (% DEX)=100×{(average value of IL-6 production inhibitory ratio of each test compound solution)/(average value of IL-6 production inhibitory ratio of DEX treated group)}(%)
In addition, IC50 was calculated according to a conventional method. IDBS XLfit4 was used for the calculation.

[2] = system: TNFα production in rat whole blood; experiment: TNFα production inhibitory action evaluation test (LPS stimulation ex vivo, ELISA); assay type: cell-based; details: 20 hours, 200 μM test compound solution 10 μL/well, DEX treated group = 100, read-out: TNFα production inhibitory ratio (% DEX)
Protocol: In order to evaluate an action of the present compound as a GR agonist, a TNFα production inhibitory action in rat whole blood after LPS stimulation ex vivo was investigated. For the measurement of the TNFα production amount, the ELISA method (manufactured by R&D Systems, Cat No. RTA00) was used, and a procedure was carried out according to the protocol attached thereto. Hereinafter, the specific method will be described.
LPS solution: LPS was dissolved in PBS(−) and diluted with RPMI 1640 to prepare an LPS solution with a concentration of 2 μg/mL.
After the test compound was dissolved in dimethylsulfoxide, the solution was diluted with PBS(−) to prepare 200 μM of a test compound solution. In addition, DEX was similarly dissolved to prepare 200 μM of a DEX solution, and a TNFα production inhibitory ratio of DEX was measured, and used for calculation of Efficacy (% DEX).
• 1) Blood was collected from 3 to 5 rats using an injection syringe treated with heparin from the abdominal aorta under isoflurane anesthesia. The rats confirmed death after lething the whole blood. • 2) The blood of 3 to 5 rats pooled in a 96-well round bottom culture plate was seeded at each 180 μL/well. • 3) It was cultured (37° C., 5% CO2, 95% air) for about 1 hour. • 4) The test compound solution was added each 10 μL/well, and cultured for 1 hour. • 5) LPS solution was added each 10 μL/well. • 6) The sample in which 2% dimethylsulfoxide-containing PBS(−) was added with each 10 μL/well in place of each test compound solution, and RPMI 1640 was added with each 10 μL/well in place of the LPS solution was made a negative control. • 7) The sample in which 2% dimethylsulfoxide-containing PBS(−) was added with each 10 μL/well in place of each test compound solution was made a positive control. • 8) After completion of 20 hours cultivation, the supernatant was recovered and the amount of TNFα released in the supernatant was measured by using an ELISA Kit. • 9) The TNFα production inhibitory ratio was calculated according to the following calculation formula. (Calculation of TNFα Production Inhibitory Ratio)
as §1, with “TNFα” for “The IL-6”, “according to” for “by”, “TNFα” for “IL-6”, “(%)=100×{1−(TNFα production” for “(%)=100×{1−(IL-6 produced”, “TNFα production” for “IL-6 produced”
Further, a TNFα production inhibitory ratio (Efficacy (% DEX)) when the DEX treated group was made 100 was calculated. Efficacy (% DEX)=100×{(average value of TNFα production inhibitory ratio of each test compound solution)/(average value of TNFα production inhibitory ratio of DEX treated group)}(%)

Structure (SMILES) | Emax [1] | Emax [2] | IC50 [1]
CCCC(=O)Oc1ccc(-c2ccc3c(c2COc2cc(F)ccc2C)N(C)C(=O)C(C)(C)N3)c(OC)c1 [Control compound D, 7-(4-butyryloxy-2-methoxyphenyl)-8-(5-fluoro-2-methylphenoxymethyl)-1,3,3-trimethyl-3,4-dihydro-1H-quinoxalin-2-one, reference compound] | 69% |  | 
COc1cc(OC[C@@H](O)CCO)ccc1-c1ccc2c(c1COc1cc(F)ccc1C)N(C)C(=O)C(C)(C)N2 [Compound 2-1, (S)-7-[4-(2,4-dihydroxybutyl)oxy-2-methoxyphenyl]-8-(5-fluoro-2-methyl-phenoxymethyl)-1,3,3-trimethyl-3,4-dihydro-1H-quinoxalin-2-one] | 82% | 97% | 
COc1ccc(-c2ccc3c(c2COc2cc(F)ccc2C)N(C)C(=O)C(C)(C)N3)c(OC)c1 [Control compound E, 7-(2,4-dimethoxyphenyl)-8-(5-fluoro-2-methyl-phenoxymethyl)-1,3,3-trimethyl-3,4-dihydro-1H-quinoxalin-2-one, reference compound] | 10% | 0% | 
COc1cc(OC[C@@H](O)CC#N)ccc1-c1ccc2c(c1COc1cc(F)ccc1C)N(C)C(=O)C(C)(C)N2 [Compound 5-2, (S)-7-[4-(3-cyano-2-hydroxypropyl)oxy-2-methoxyphenyl]-8-(5-fluoro-2-methyl-phenoxymethyl)-1,3,3-trimethyl-3,4-dihydro-1H-quinoxalin-2-one] | > 99% | > 99% | 0.013 µM
COCOc1ccc(-c2ccc3c(c2COc2cc(F)ccc2C)N(C)C(=O)C(C)(C)N3)c(OC)c1 [Control compound F, 8-(5-fluoro-2-methylphenoxymethyl)-7-(2-methoxy-4-methoxymethoxyphenyl)-1,3,3-trimethyl-3,4-dihydro-1H-quinoxalin-2-one, reference compound] | 62% | 69% | 
COc1cc(OC[C@H](C)O)ccc1-c1ccc2c(c1COc1cc(F)ccc1C)N(C)C(=O)C(C)(C)N2 [Compound 1-1, (S)-8-(5-fluoro-2-methylphenoxymethyl)-7-[4-(2-hydroxypropyl)oxy-2-methoxy-phenyl]-1,3,3-trimethyl-3,4-dihydro-1H-quinoxalin-2-one] | 86% | 81% | 
COc1ccc(CO)cc1-c1ccc2c(c1COc1cc(F)ccc1C)N(C)C(=O)C(C)(C)N2 [Control compound B, 8-(5-fluoro-2-methylphenoxymethyl)-7-(5-hydroxymethyl-2-methoxyphenyl)-1,3,3-trimethyl-3,4-dihydro-1H-quinoxalin-2-one, reference compound] | 62% | 77% | 
COc1ccc(O)cc1-c1ccc2c(c1COc1cc(F)ccc1C)N(C)C(=O)C(C)(C)N2 [Control compound C, 8-(5-fluoro-2-methylphenoxymethyl)-7-(5-hydroxy-2-methoxyphenyl)-1,3,3-trimethyl-3,4-dihydro-1H-quinoxalin-2-one] | 71% |  | 0.093 µM
